Changes are numbered by the printed parent chain. Read-outs that look alike come from different tables or passages of the source.
Assays:
[1] = target: T1, purified wild type MGL (wt-MGLL 6H-11-313) (Homo sapiens, UniProt Q99685)
T1 sequence (Q99685 1-303): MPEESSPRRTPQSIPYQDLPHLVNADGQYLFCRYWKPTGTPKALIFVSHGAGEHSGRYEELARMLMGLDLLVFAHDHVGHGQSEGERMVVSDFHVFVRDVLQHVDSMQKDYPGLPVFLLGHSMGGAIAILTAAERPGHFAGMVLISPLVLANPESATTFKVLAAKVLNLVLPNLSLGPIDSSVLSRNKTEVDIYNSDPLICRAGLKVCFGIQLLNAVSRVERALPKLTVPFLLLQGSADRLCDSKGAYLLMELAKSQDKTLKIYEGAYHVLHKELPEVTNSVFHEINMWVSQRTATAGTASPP

[2] = tested on: CFA-induced paw radiant heat hypersensitivity; test: CFA-induced paw radiant heat hypersensitivity; assay type: in vivo, rat; settings: 30 mg/kg p.o., HPβCD, last time point 180 or 300 min; for inhibition in vivo at 30 mg/kg: Rattus norvegicus, po
MGL = target: T2, MGL (Rattus norvegicus, UniProt Q8R431); test: 2-AG accumulation assay in rat brain homogenate; assay type: biochemical; settings: rat brain homogenate, 2-AG accumulation as percent of vehicle; for 2-AG accumulation, % of vehicle control at 0.1 µM: compound 0.1 μM, read-out: Rat Brain 2AG % VehCntrl (%) @ 0.1 μM; for 2-AG accumulation, % of vehicle control at 1 µM: read-out: Rat Brain 2AG % VehCntrl (%) @ 1 μM
T2 construct: one g rat brain was homogenized using a Polytron homogenizer; from tissue; host or cells: rat brain homogenate
T2 sequence (Q8R431 1-303): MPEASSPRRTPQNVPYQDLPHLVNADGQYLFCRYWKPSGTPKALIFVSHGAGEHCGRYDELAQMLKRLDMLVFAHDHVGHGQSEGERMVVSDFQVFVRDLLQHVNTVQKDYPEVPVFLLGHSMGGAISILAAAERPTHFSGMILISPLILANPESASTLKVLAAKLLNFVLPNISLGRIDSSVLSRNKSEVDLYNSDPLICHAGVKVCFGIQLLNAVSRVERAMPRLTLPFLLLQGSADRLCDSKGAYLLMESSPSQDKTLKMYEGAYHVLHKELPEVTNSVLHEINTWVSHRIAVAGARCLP

mutant MGL = target: T3, mutant MGL (Homo sapiens, UniProt Q99685, L169S/L176S); test: MGL ThermoFluor assay - mutant; assay type: binding
T3 sequence (Q99685 1-303 L169S/L176S): T1 sequence (Q99685 1-303) with L169S, L176S

[3] = group mean values, read-out: CFA thermal hypersensitivity Method 1: peak % reversal
[4] = individual animal values, read-out: CFA thermal hypersensitivity Method 2: peak % reversal
[5] = ThermoFluor thermal stability binding assay, read-out: MGL mutant ThermoFluor Kd
[6] = ThermoFluor concentration-response, read-out: MGL mutant ThermoFluor Kd

Row | SMILES | IC50 [1] | inhibition in vivo at 30 mg/kg [2, 3] | inhibition in vivo at 30 mg/kg [2, 4] | 2-AG accumulation, % of vehicle control at 0.1 µM (MGL) | Kd (mutant MGL; [5]) | 2-AG accumulation, % of vehicle control at 1 µM (MGL; compound 1 μM) | 2-AG accumulation, % of vehicle control at 10 µM (MGL; compound 10 μM, read-out: Rat Brain 2AG % VehCntrl (%) @ 10 μM) | Kd (mutant MGL; [6]) | CFA thermal hypersensitivity Method 1: peak % reversal ([2]; group mean values) | Rat Brain 2AG % VehCntrl (%) @ 1 μM (MGL; compound 1 μM) | Kd (mutant MGL; MGL mutant ThermoFluor Kd, ThermoFluor concentration-response) | Kd (mutant MGL; MGL mutant ThermoFluor qKd (using qNMR conc.), compound concentration measured by qNMR)
1 | O=C(c1nccs1)N1CCN(C2CN(C(=O)c3sc4cc(C(F)(F)F)ccc4c3Cl)C2)CC1 [Cpd 324, 1-(1-{[3-Chloro-6-(trifluoromethyl)-1-benzothiophen-2-yl]carbon-yl}azetidin-3-yl)-4-(1,3-thiazol-2-ylcarbonyl)piperazine] | < 5 nM | 48.7% | 55.8% | 941% | 0.4 nM | – | – | – | – | – | – | –
2 | COc1cc(C(=O)N2CC(N3CCN(C(=O)c4cscn4)CC3)C2)ccc1-c1ccc(F)c(Cl)c1 [Cpd 261, 1-{1-[(3′-Chloro-4′-fluoro-2-methoxybiphenyl-4-yl)carbonyl]azetidin-3-yl}-4-(1,3-thiazol-4-ylcarbonyl)piperazine] | 8.4 nM | 26.4% | 27.5% | 148% | 9.1 nM | 525% | 856% | – | – | – | – | –
3 | O=C(c1cccc(-c2ccc(F)cc2F)c1)N1CC(N2CCN(C(=O)c3nccs3)CC2)C1 [Cpd 1117, 1-{1-[(2′,4′-Difluorobiphenyl-3-yl)carbonyl]azetidin-3-yl}-4-(1,3-thiazol-2-ylcarbonyl)piperazine] | 16 nM | 23.2% | – | – | – | 437% | – | 214 nM | – | – | – | –
4 | O=C(c1ccc2c(ccn2-c2ccc(F)cc2F)c1)N1CC(N2CCN(C(=O)c3nccs3)CC2)C1 [Cpd 1364, 1-(2,4-Difluorophenyl)-5-({3-[4-(1,3-thiazol-2-ylcarbonyl)piperazin-1-yl]azetidin-1-yl}carbonyl)-1H-indole] | < 5 nM | 17% | – | – | – | 944% | – | 1 nM | – | – | – | –
5 | O=C(c1cccc(-c2cccc(F)c2)c1)N1CC(N2CCN(C(=O)c3nccs3)CC2)C1 [Cpd 1124] | 19 nM | 88.1% | – | – | – | 506% | – | 250 nM | – | – | – | –
6 | O=C(c1cscn1)N1CCN(C2CN(C(=O)c3sc4cc(-c5ccccc5)ccc4c3Cl)C2)CC1 [Cpd 345] | < 5 nM | 25% | 26.3% | – | 3.1 nM | 744% | – | – | – | – | – | –
7 | C/C(=C\c1ccc(Cl)cc1)c1c(C)c(C(=O)N2CC(N3CCN(C(=O)c4nccs4)CC3)C2)nn1-c1ccc(Cl)cc1Cl [Cpd 1010] | < 5 nM | – | – | – | – | – | – | – | 23.4% | 1953% | 17 nM | 40 nM
8 | O=C(c1ccc(-c2cccc(C(F)(F)F)c2)cc1)N1CC(N2CCN(C(=O)c3cscn3)CC2)C1 [Cpd 229, 1-(1,3-Thiazol-4-ylcarbonyl)-4-(1-{[3′-(trifluoromethyl)biphenyl-4-yl]carbonyl}azetidin-3-yl)piperazine] | < 5 nM | 55.8% | 56.6% | 276% | 12.5 nM | 552% | – | – | – | – | – | –

Source: patent US8362000B2, “Azetidinyl diamides as monoacylglycerol lipase inhibitors” (Janssen Pharmaceutica NV, priority 2009, dated 2013)
